Assay results as given in patent US12185774B2, “Methods and devices for preventing viral transmission” (priority 2020, dated 2025).

Tests used:
[1] = system: HUVEC cells; experiment: Electric-field-induced elongation of endothelial cells (long:short axis ratio); type: cell-based
Protocol: HUVEC cells were seeded in a trough formed by two parallel (1 cm apart) strips of glass coverslip (No. 1, length of 22 mm) fixed to the base of the dish with silicone grease. Scratch lines were made perpendicular to the long axis of the chamber with a fine sterile needle and used as reference marks for directed cell migration. Cells were incubated for 24-48 hours (37° C., 5% CO2) before a roof coverslip was applied and sealed with silicone grease. The final dimensions of the chamber, through which current was passed, were 22×10×0.2 mm. Agar-salt bridges not less than 15 cm long were used to connect silver/silver-chloride electrodes in beakers of Steinberg's solution (58 mM NaCl, 0.67 mM KCl, 0.44 mM Ca(NO3)2, 1.3 mM MgSO4, 4.6 mM Trizma base, pH 7.8-8.0), to pools of excess culture medium at either side of the chamber. Field strengths were measured directly at the beginning of, the end of and during each experiment. No fluctuations in field strength were observed. […] (50 μM), the Rho kinase inhibitor Y27632 (50 μM), both Akt and Rho kinase inhibitors (10 μM each) or latrunculin (50 nM) for 1 hour before EF stimulation. The same concentration of drug was present during EF exposure in a CO2 incubator.
A series of images was taken with an image analyser immediately before EF exposure and at 4, 8 and 24 hours of EF exposure. Cell orientation was quantified as an orientation index (Oi), which is defined as Oi=cos2 (a), where a is the angle formed by the long axis of a cell with a line drawn […] to the field lines. A cell with its long axis parallel to the vector of the EF will have an Oi of −1, and a cell with its long axis exactly perpendicular to the EF vector will have an Oi of +1. […] The significance of this two-dimensional orientation distribution against randomness was calculated using Rayleigh's distribution. A long:short axis ratio was calculated for assessment of elongation.
HUVEC cells elongated dramatically in an EF. […] We quantified the elongation of the cells using a long:short axis ratio. […]

[2] = system: HUVEC cells; experiment: Electric-field-induced reorientation of endothelial cells (orientation index Oi); type: cell-based; conditions: for orientation response in EF (in words): inhibitors 50 μM (latrunculin 50 nM), 1 hour before and during EF
Protocol: A series of images was taken with an image analyser immediately before EF exposure and at 4, 8 and 24 hours of EF exposure. Cell orientation was quantified as an orientation index (Oi), which is defined as Oi=cos2 (a), where a is the angle formed by the long axis of a cell with a line drawn perpendicular to the field lines. A cell with its long axis parallel to the vector of the EF will have an Oi of −1, and a cell with its long axis exactly perpendicular to the EF vector will have an Oi of +1. A randomly oriented population of cells will have an average Oi {defined as [Σn cos2(α)]+n} of 0. The significance of this two-dimensional orientation distribution against randomness was calculated using Rayleigh's distribution. A long:short axis ratio was calculated for assessment of elongation.
Cell alignment was quantified using an orientation index Oi=cos2(α), where a is the angle formed between the long axis of a cell and a line drawn perpendicular to the field lines. In cells oriented perpendicular to the field vector, the Oi is +1, cells parallel to the field vector give an Oi of −1 and random orientation gives an Oi of 0.

[3] = system: HaCaT human keratinocytes; experiment: Scratch assay, HaCaT keratinocyte migration, Example 3; conditions: catalase over-expression; 5 mM N-acetylcysteine 1 h pretreatment; 50 nM IGF-1R inhibitor
Protocol: Cell culture—Immortalized HaCaT human keratinocytes were grown in Dulbecco's low-glucose modified Eagle's medium (Life Technologies, Gaithersburg, MD, U.S.A.) supplemented with 10% fetal bovine serum, 100 U/ml penicillin, and 100 g/ml streptomycin. The cells were maintained in a standard culture incubator with humidified air containing 5% CO2 at 37° C.
Scratch assay—A cell migration assay was performed using culture inserts (IBIDI®, Verona, WI) according to the manufacturer's instructions. Cell migration was measured using time-lapse phase-contrast microscopy following withdrawal of the insert. Images were analyzed using the AxioVision Rel 4.8 software.
N-Acetyl Cysteine Treatment—Cells were pretreated with 5 mM of the thiol antioxidant N-acetylcysteine (Sigma) for 1 h before start of the scratch assay.
IGF-1R inhibition—When applicable, cells were preincubated with 50 nM IGF-1R inhibitor, picropodophyllin (Calbiochem, MA) just prior to the Scratch Assay.
Catalase gene delivery—HaCaT cells were transfected with 2.3×10^7 pfu AdCatalase or with the empty vector as control in 750 μL of media. Subsequently, 750 μL of additional media was added 4 h later and the cells were incubated for 72 h.

1-L-6-hydroxymethyl-chiro-inositol 2-[(R)-2-O-methyl-3-O-octadecylcarbonate] [Akt inhibitor]
long:short axis ratio / elongation response in EF-treated cells (in words) [1]: significantly decreased the long:short axis ratio | orientation response in EF (in words) [2]: significantly decreased the orientation response

N#CC(=C(/N)Sc1ccccc1N)/C(C#N)=C(\N)Sc1ccccc1N [U0126]
orientation response in EF (in words) [2]: decreased the orientation to a similar extent

CC(=O)N[C@@H](CS)C(=O)O [N-Acetyl Cysteine]
effect on the increased migration triggered by LLEC [3]: failed to reproduce the increased migration

C/C1=C/C(=O)O[C@@H]2C[C@@H](CC[C@H](C)/C=C\C=C\CC1)O[C@@](O)([C@@H]1CSC(=O)N1)C2 [Latrunculin A]
long:short axis ratio / elongation response in EF-treated cells (in words) [1]: completely abolished the EF-induced elongation response | orientation response in EF (in words) [2]: suppressed the orientation response significantly

COc1cc([C@@H]2c3cc4c(cc3[C@H](O)[C@H]3COC(=O)[C@@H]23)OCO4)cc(OC)c1OC [IGF-1R inhibitor, picropodophyllin]
effect on the increased migration triggered by LLEC [3]: attenuated the increased keratinocyte migration

catalase
effect on the increased migration triggered by LLEC [3]: attenuated the increased migration

C[C@@H](N)[C@H]1CC[C@H](C(=O)Nc2ccncc2)CC1 [Y27632]
long:short axis ratio / elongation response in EF-treated cells (in words) [1]: significantly decreased the long:short axis ratio | orientation index Oi ([2]; value in sentence on U0126 (50 μM)): 0.33±0.03

COc1cc2ncnc(Nc3ccc(Cl)cc3F)c2cc1OC [VEGFR inhibitor, 4-[(4′-chloro-2′-fluoro)phenylamino]-6,7-dimethoxyquinazoline]
orientation response in EF (in words) [2]: completely abolished the reorientation
